Assay results reported in paper PMC11396746, “Stability Evaluation and Pharmacokinetic Profiling of Vepdegestrant in Rodents Using Liquid Chromatography–Tandem Mass Spectrometry” (Molecules, 2024).
Read-outs that look alike come from different tables or passages of the source.

Assay: Pharmacokinetic study in male ICR mice
Format: in vivo
Details: mouse
Method: Twelve healthy male ICR mice (6 weeks old, 27.5–30.5 g) and 10 healthy male Sprague–Dawley (SD) rats (7 weeks old, 195.5–212.0 g) were acquired from Orient Bio Inc. (Seongnam, Republic of Korea) and used for PK studies. The animals were kept in rooms in a temperature range of 20–25 °C, humidity of 40–60%, and a 12-h light/dark cycle. Before the experiment, mice were fasted for 4 h, whereas rats were fasted for 14 h, with only water provided during the fasting period. After 4 h of drug administration, animals were provided with free access to food and water. All animal experiments were approved by the Institutional Animal Care and Use Committee of the Chungnam National University (202310A-CNU-178; Daejeon, Republic of Korea).
For the PK studies in mice, a vepdegestrant dosing solution was prepared using a combination of DMSO, PEG400, and saline (5:25:70, v/v/v). The dosing solution was administered intravenously (IV, 2 mg/kg) through the tail vein or orally (PO, 5 mg/kg) through a gavage needle. The dose volume for both routes was 10 mL/kg. Blood samples (50 μL) were collected via the retro-orbital plexus at 0.05 (IV only), 0.25, 0.5, 1, 2, 4, 8, and 24 h post vepdegestrant administration using heparin-coated microcapillaries. Blood samples were immediately centrifuged at 12,032 g under 25 °C for 5 min, and plasma aliquots (20 μL) were stored at −20 °C until HPLC-MS/MS analysis.
The collected plasma samples from mice or rats (20 µL) were added with IS (20 µL) and ACN (160 µL). Subsequently, the mixture was vigorously mixed for 10 min and centrifuged at 17,054× g under 25 °C for 10 min. An aliquot of the supernatant (100 μL) was taken, and a volume of 5 μL was injected for HPLC-MS/MS analysis. PK parameters were calculated using Phoenix® 8.3 software (Certara L.P., Princeton, NJ, USA), as described previously.

Vd (male, ICR, plasma, intravenous, 2 mg/kg, read-out: volume of distribution): > 1 L/kg | Cmax (male, ICR, plasma, IV 2 mg/kg): 2180 ± 442 ng/mL | MRT (male, ICR, plasma, IV 2 mg/kg): 4.61 ± 1.43 h | Tmax (male, ICR, plasma, IV 2 mg/kg): 0.05 h | clearance (male, ICR, plasma, IV 2 mg/kg): 5.22 mL/min/kg | half-life (male, ICR, plasma, IV 2 mg/kg): 3.79 ± 1.15 h | Vd (male, ICR, plasma, IV 2 mg/kg, read-out: Vss): 1.43 ± 0.472 L/kg | Cmax (male, ICR, plasma, PO 5 mg/kg): 393 ± 133 ng/mL | MRT (male, ICR, plasma, PO 5 mg/kg): 5.58 ± 1.34 h | Tmax (male, ICR, plasma, PO 5 mg/kg): 1 h | half-life (male, ICR, plasma, PO 5 mg/kg): 3.64 ± 1.4 h | bioavailability (male, ICR, plasma, PO 5 mg/kg vs IV 2 mg/kg, read-out: BA (oral bioavailability)): 17.9 ± 4.35% | AUCinf (IV 2 mg/kg): 6510 ± 1060 ng·h/mL | AUClast (IV 2 mg/kg): 6400 ± 1080 ng·h/mL | AUCinf (PO 5 mg/kg): 2910 ± 707 ng·h/mL | AUClast (PO 5 mg/kg): 2870 ± 704 ng·h/mL | clearance as % of liver blood flow (liver blood flow 5.4 L/h/kg): 5.8%
SMILES: O=C1CC[C@H](N2Cc3cc(N4CCN(CC5CCN(c6ccc([C@@H]7c8ccc(O)cc8CC[C@@H]7c7ccccc7)cc6)CC5)CC4)ccc3C2=O)C(=O)N1 [vepdegestrant, Vepdegestrant]
